According to patent publication US10314816B2, “Antimicrobial compounds, compositions and methods of use thereof” (Wisconsin Alumni Research Foundation, priority 2012, dated 2019):

Columns and labels:
S. aureus FRI 100 [1] = assay: MIC of bacterial growth, macrodilution (Table 2); type: cell-based; conditions: Staphylococcus aureus, FRI100; S. aureus FRI 100, actively growing cells
Protocol: Bacterial strains and growth conditions. Luria-Bertani (LB) media (10 g/L tryptone, 10 g/L NaCl, 5 g/L yeast extract, pH 7.2) was used to grow B. subtilis 168, S. aureus FRI100, and P. aeruginosa K1115 strains. […] All cultures were grown at 37° C., except for C. crescentus (30° C.). All cultures were grown while shaking at 200 rpm.
Determination of the minimum inhibitory concentration (MIC) of bacterial growth. The MIC of various organisms in liquid media was determined using the macrodilution method according to the NCCLS guidelines. For the starting inoculum, cultures were diluted to contain approximately 5×10^5 cells/mL in growth media. To create a two-fold dilution series for the macrodilution technique, each compound was added to the first culture tube (4 mL total volume) at the highest concentration. 2 mL of this culture was diluted into an equal volume of inoculated media (a two-fold dilution). The final volume for each culture was 2 mL.

C. crescentus CB15N = assay: Minimum biofilm eradication concentration (MBEC); type: cell-based, Caulobacter crescentus
Protocol: (§1) Determination of the minimum biofilm inhibitory concentration of growth (bMIC) and biofilm eradication concentration (MBEC). Overnight cultures of C. crescentus and S. aureus were grown and diluted 100-fold into appropriate nutrient media. Aliquots of the diluted suspension were transferred into wells of 96-well plates (150 μL/well). 2-fold serial dilutions were performed for compound-containing wells. For every experiment, three replicates for each compound concentration tested were included. After transferring aliquots of the suspension, the plates were closed with specialized lids that have protruding pins (Nunc STP System), and the plates were sealed using Parafilm®. The plates were incubated in a static incubator at 30° C. (C. crescentus) or 37° C. (S. aureus) for 24 hours. After the cells had formed biofilms on the surface of the pins, the pins were rinsed by dipping them in M2 (C. crescentus) or PBS (S. aureus) solutions. To rinse the pins, clean, sterile 96-well plates were used (aliquots of 200 μL/well); each rinse lasted 10 sec. After washing away planktonic cells loosely bound to biofilms, the pins were inserted into a 96-well plate that was pre-aliquoted with nutrient media containing antibiotics (2-fold dilutions, a final volume of 150 μL/well). The plates were sealed with Parafilm®, and incubated for 17 hours, and the bMIC was measured at the end of the incubation by visual inspection. After the bMIC run, the rinse steps were repeated to remove planktonic cells, and the pins were inserted into a 96-well plate that was pre-aliquoted with drug-free nutrient media (aliquots of 150 μL/well). The plates were sealed with Parafilm®, incubated for 24 hours, and the MBEC was measured at the end of the incubation by visual inspection.
After performing bMIC experiments, biofilms growing on the pins of the lid were transferred to nutrient media devoid of antibiotics to measure the minimum concentration of antibiotic that prevented planktonic growth from biofilms in antibiotic-free nutrient media (MBEC). MBEC indicates whether the exposure to antimicrobial agent used during the bMIC experiment sterilized biofilm-associated cells. […] CCCP was the only effective antibiotic against S. aureus biofilms. Since CCCP was not as effective as DCAP at killing stationary cells, it was hypothesized that this variability in efficacy of membrane-active drugs is in part caused by changes in membrane composition (i.e., membrane proteins and lipid content) at different developmental stages of bacterial cells. […]

S. aureus FRI 100 [2] = assay: Minimum biofilm eradication concentration (MBEC); type: cell-based, Staphylococcus aureus; conditions: S. aureus FRI 100 biofilm
Protocol: as §1
After performing bMIC experiments, biofilms growing on the pins of the lid were transferred to nutrient media devoid of antibiotics to measure the minimum concentration of antibiotic that prevented planktonic growth from biofilms in antibiotic-free nutrient media (MBEC). […]

Venus-FtsA = assay: Measurement of compound effects on FtsA localization; type: cell-based, Caulobacter crescentus; conditions: C. crescentus, 20 minutes
Protocol: Measurement of compound effects on FtsA: For experiments with C. crescentus expressing Venus-FtsA, a synchronized population of cells was used. First, an overnight culture was grown with kanamycin (5 μg/mL) and glucose (0.02% w/v). The presence of glucose suppressed the transcription of venus-ftsA from its xylose-inducible promoter. 2 mL of this culture was diluted into 25 mL of fresh PYE with the antibiotic and glucose, and incubated further to achieve an absorbance of ˜0.6 (λ=600 nm). Once the cells reached mid-exponential phase, the culture was centrifuged for 10 minutes at 6000 rpm and 4° C. The cell pellet was resuspended in ice-cold M2 (a final volume of approximately 1000 μL) and 750 μL of this suspension was added to an equal-volume of sterile Percol (Sigma Aldrich). After thoroughly mixing the solution, it was centrifuged for 20 minutes at 11,000 rpm and 4° C. Upon centrifugation, the bottom band (swarmer cells) was taken and the cells were washed in ice-chilled M2 solution (1 mL). The washed cell pellet was suspended in fresh PYE containing kanamycin (no glucose, 6 mL). The cell suspension was incubated for 20 minutes and then xylose (0.03% w/v) was added to induce the expression of venus-ftsA. Cells were grown for another 20 minutes and subsequently treated with compounds. The cells were incubated for 20 minutes again in the presence of the compounds prior to imaging. Thus, the total time of xylose induction was 40 minutes, and the total time of compound treatment was 20 minutes. At this time point (60 minutes post synchrony), the majority of the cells were at the beginning of cell division. Imaging conditions and data analysis were identical to the conditions described for MipZ-YFP, except for a set of criteria used for defining ‘wildtype’ protein localization. ‘Wildtype’ was defined as 1) Venus-FtsA is unipolar, meaning there was one peak, and the peak resided within a polar region; and 2) Venus-FtsA was at the mid-cell, meaning there was one peak and it was within the mid-cell region (40-60% of the normalized cell length). […]

## N#CC(C#N)=NNc1cccc(Cl)c1 [CCCP, carbonyl cyanide m-chlorophenyl hydrazone]
S. aureus FRI 100 [1]
  MIC: 1.25 µM
C. crescentus CB15N
  MBEC: 5 µM
S. aureus FRI 100 [2]
  MBEC: 80 µM
Venus-FtsA; CCCP at its minimum inhibitory concentration (5 μM)
  Venus-FtsA localization: did not alter the localization of FtsA
Venus-FtsA; higher concentration of CCCP (25 μM)
  Venus-FtsA localization: had a significant effect on the position of FtsA

## OCC(CO)(CO)NCC(O)Cn1c2ccc(Cl)cc2c2cc(Cl)ccc21 (stereo not drawn) [DCAP, 2-((3-(3,6-dichloro-9H-carbazol-9-yl)-2-hydroxypropyl)amino)-2-(hydroxymethyl)propane-1,3-diol]
S. aureus FRI 100 [1]
  MIC: 50 µM
C. crescentus CB15N
  MBEC: 40 µM
S. aureus FRI 100 [2]
  MBEC: >200 µM
Venus-FtsA; treated with DCAP
  Venus-FtsA localization: exhibited multiple peaks of FtsA fluorescence (≥2)
